Measured values: patent US9271978B2 (Zenith Epigenetics Corp., priority 2012, dated 2016)

How the values were obtained:
hIL-6 mRNA = assay: Inhibition of hIL-6 mRNA transcription in U937 cells; type: cell-based, human; set-up: key: Active: Compounds with an IC50 value less than 30 μM were deemed to be active.; Not Active: Compounds with an IC50 value less than 30 μM were deemed to be active; conditions: LPS stimulation, active = IC50 <30 μM
Outline: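 Readout is one-step real-time PCR of hIL-6 mRNA, normalized to an internal control and given as fold induction versus control. Cells: PMA (60 ng/mL, 3 days)-differentiated U937 macrophages, compound added 1 h before 1 ug/mL LPS, harvested after 3 h at 37° C.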

[1] = system: human AML MV-4-11 (CRL-9591) cells; assay: Inhibition of cell proliferation in MV4-11 cells; type: cell-based; set-up: key: Active: Compounds with an IC50 value less than 30 μM were deemed to be active.; Not Active: Compounds with an IC50 value less than 30 μM were deemed to be active; conditions: human AML MV-4-11 cells, 72 h; active = IC50 <30 μM
Outline: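 IC50 values come from blank-corrected proliferation relative to DMSO controls, read as 490 nm absorbance 3–4 h after CellTiter Aqueous One addition. Before that, cells seeded at 5×10^4/well were exposed for 72 h (37° C, 5% CO2) to triplicate two-fold compound dilutions spanning 30–0.2 μM.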

[2] = molecular target: T1, Brd4 bromodomain 1 (BRD4(1)) (Homo sapiens, UniProt O60885); assay: Inhibition of tetra-acetylated histone H4 binding to Brd4 bromodomain 1 (TR-FRET); set-up: key: Active: Compounds with an IC50 value less than 30 μM were deemed to be active.; Not Active: Compounds with an IC50 value less than 30 μM were deemed to be active; conditions: tetra-acetylated histone H4 peptide, active = IC50 <30 μM
T1 construct: Illustrative results with the first bromodomain of Brd4; made in house; host or cells: E. coli BL21 (DE3)
Outline: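 IC50 values come from dose-response curves of the 665 nm to 620 nm TR-FRET signal decrease, measured after 2 h at room temperature. Reactions contained 200 nM E. coli-expressed His-tagged bromodomain, 25-50 nM biotinylated tetra-acetylated H4 peptide, Eu-streptavidin plus XL665 anti-His antibody, with 30 mM HEPES pH 7.4, 320 mM KF and 0.2% DMSO.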

ApoA-I mRNA = assay: Up-regulation of hApoA-1 mRNA transcription in Huh7 cells; type: cell-based, human; set-up: key: Active: Compounds with an EC170 value less than 30 μM were deemed to be active; conditions: 48 h treatment, ApoA-I mRNA by real-time PCR, Active = EC170 less than 30 μM
Method: In this example, ApoA-I mRNA in tissue culture cells was quantitated to measure the transcriptional up-regulation of ApoA-I when treated with a compound of the present disclosure.
Huh7 cells (2.5×10^5 per well) were plated in a 96-well plate using 100 μL DMEM per well, (Gibco DMEM supplemented with penicillin/streptomycin and 10% FBS), 24 h before the addition of the compound of interest. After 48 h treatment, the spent media was removed from the Huh-7 cells and placed on ice (for immediate use) or at −80° C. (for future use) with the “LDH cytotoxicity assay Kit II” from Abcam. The cells remaining in the plate were rinsed with 100 μL PBS.
Then 85 μL of cell lysis solution was added to each well and incubated for 5-10 min at room temperature, to allow for complete cell lysis and detachment. mRNA was then prepared using the “mRNA Catcher PLUS plate” from Life Technologies, according to the protocol supplied. After the last wash, as much wash buffer as possible was aspirated without allowing the wells to dry. Elution Buffer (E3, 80 μL) was then added to each well. mRNA was then eluted by incubating the mRNA Catcher PLUS plate with Elution Buffer for 5 min at 68° C., and then 1 min at 4° C. Catcher plates with mRNA eluted were kept on ice for use or stored at −80° C.
The eluted mRNA isolated was then used in a one-step real-time PCR reaction, using components of the Ultra Sense Kit together with Life Technologies primer-probe mixes. Real-time PCR data was analyzed, using the Ct values, to determine the fold induction of each unknown sample, relative to the control (that is, relative to the control for each independent DMSO concentration).
Compounds with an EC170 value less than 30 μM were deemed to be active.

c-myc = assay: Inhibition of c-myc expression in MV4-11 cells (mRNA, real-time PCR); type: cell-based; set-up: key: Active: Compounds with an IC50 value less than 30 μM were deemed to be active.; Not Active: Compounds with an IC50 value less than 30 μM were deemed to be active; conditions: Human AML MV4-11 cells, 3 h incubation
Outline: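 Duplex RT-qPCR of c-myc against cyclophilin cDNA gave IC50 from a dose–response curve. Input was isolated mRNA from 2.5×10^4 MV4-11 cells after 3 h exposure at 37 °C to compound or 0.1% DMSO vehicle.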

Row | Structure (SMILES) | IL-6 activity (IC50 <30 μM) (hIL-6 mRNA) | Cell Proliferation activity (IC50 <30 μM) [1] | FRET activity (IC50 <30 μM) BRD4(1) [2] | ApoA-1 activity (EC170 <30 μM) (ApoA-I mRNA) | c-myc activity (IC50 <30 μM) (c-myc)
1 | Cc1noc(C)c1-c1cc(Nc2cccnc2)c(=O)n(Cc2ccccc2)c1 [Example 194, 1-benzyl-5-(3,5-dimethylisoxazol-4-yl)-3-(pyridin-3-ylamino)pyridin-2(1H)-one] | Active | Active | Active | Active | Active
2 | Cc1noc(C)c1-c1cc(N)c(=O)n(Cc2nccs2)c1 [Example 215, 3-amino-5-(3,5-dimethylisoxazol-4-yl)-1-(thiazol-2-ylmethyl)pyridin-2(1H)-one] | Active | Active | Active | Active | Active
3 | Cc1noc(C)c1-c1cc(O)c(=O)n(Cc2ccccc2)c1 [Example 209, 1-benzyl-5-(3,5-dimethylisoxazol-4-yl)-3-hydroxypyridin-2(1H)-one] | Active | Active | Active | Active | Active
4 | Cc1noc(C)c1-c1cc(NC(C)C)c(=O)n(Cc2ccccc2)c1 [Example 192, 1-benzyl-5-(3,5-dimethylisoxazol-4-yl)-3-(isopropylamino)pyridin-2(1H)-one] | Active | Active | Active | Active | Active
5 | Cc1noc(C)c1-c1cc(N)c(=O)n(Cc2ccc(C(F)(F)F)cc2)c1 [Example 228, 3-amino-5-(3,5-dimethylisoxazol-4-yl)-1-(4-(trifluoromethyl)benzyl)pyridin-2(1H)-one] | Active | Active | Active | Active | Active
6 | Cc1noc(C)c1-c1cc(N)c(=O)n(Cc2ccc(F)cc2Cl)c1 [Example 207, 3-amino-1-(2-chloro-4-fluorobenzyl)-5-(3,5-dimethylisoxazol-4-yl)pyridin-2(1H)-one] | Active | Active | Active | Active | Active
7 | Cc1onc(CO)c1-c1cc(N)c(=O)n(Cc2ccccc2)c1 [Example 189, 3-Amino-1-benzyl-5-(3-(hydroxymethyl)-5-methylisoxazol-4-yl)pyridin-2(1H)-one] | Active | Active | Active | Active | Active
8 | CCNc1cc(-c2c(C)noc2C)cn(Cc2ccccc2)c1=O [Example 186, 1-benzyl-5-(3,5-dimethylisoxazol-4-yl)-3-(ethylamino)pyridin-2(1H)-one] | Active | Active | Active | Active | Active
9 | Cc1noc(C)c1-c1cc(N)c(=O)n(Cc2ccc(OC(F)(F)F)cc2)c1 [Example 226, 3-amino-5-(3,5-dimethylisoxazol-4-yl)-1-(4-(trifluoromethoxy)benzyl)pyridin-2(1H)-one] | Active | Active | Active | Active | Active
10 | Cc1noc(C)c1-c1cc(C#N)c(=O)n(Cc2ccccc2)c1 [Example 198, 1-Benzyl-5-(3,5-dimethylisoxazol-4-yl)-2-oxo-1,2-dihydropyridine-3-carbonitrile] | Not Active | Not Active | Active | Active | Not Active
11 | COc1cc(-c2c(C)noc2C)cn(Cc2ccccc2)c1=O [Example 210, 1-benzyl-5-(3,5-dimethylisoxazol-4-yl)-3-methoxypyridin-2(1H)-one] | Active | Active | Active | Active | Active
12 | Cc1noc(C)c1-c1cc(Nc2ccccc2)c(=O)n(Cc2ccc(F)cc2)c1 [Example 182, 5-(3,5-dimethylisoxazol-4-yl)-1-(4-fluorobenzyl)-3-(phenylamino)pyridin-2(1H)-one] | Active | Not Active | Active | Active | Active
13 | Cc1noc(C)c1-c1cc(Nc2cncc(F)c2)c(=O)n(Cc2ccccc2)c1 [Example 223, 1-benzyl-5-(3,5-dimethylisoxazol-4-yl)-3-((5-fluoropyridin-3-yl)amino)pyridin-2(1H)-one] | Active | Active | Active | Active | Active
14 | Cc1noc(C)c1-c1cc(NC2CCCC2)c(=O)n(Cc2ccccc2)c1 [Example 208, 1-benzyl-3-(cyclopentylamino)-5-(3,5-dimethylisoxazol-4-yl)pyridin-2(1H)-one] | Active | Active | Active | Active | Active
15 | Cc1noc(C)c1-c1cc(N)c(=O)n(Cc2ccc(Cl)c(Cl)c2)c1 [Example 213, 3-amino-1-(3,4-dichlorobenzyl)-5-(3,5-dimethylisoxazol-4-yl)pyridin-2(1H)-one] | Active | Active | Active | Active | Active
16 | COc1ccc(Cn2cc(-c3c(C)noc3C)cc(N)c2=O)cc1 [Example 220, 3-amino-5-(3,5-dimethylisoxazol-4-yl)-1-(4-methoxybenzyl)pyridin-2(1H)-one] | Active | Active | Active | Active | Active
17 | Cc1noc(C)c1-c1cc(N)c(=O)n(Cc2ccc(F)c(Cl)c2)c1 [Example 212, 3-amino-1-(3-chloro-4-fluorobenzyl)-5-(3,5-dimethylisoxazol-4-yl)pyridin-2(1H)-one] | Active | Active | Active | Active | Active
